From patent US8114859B2, “2-methylene-(20S,25S)-19,27-dinor-(22E)-vitamin D analogs” (Wisconsin Alumni Research Foundation, priority 2006, dated 2012) come the findings set out here.

Test [1] in a line: Intestinal calcium transport, everted gut sac method, in vitamin D-deficient rats. The test is classed as in vivo, rat. Particulars: FIG. 5; for intestinal calcium transport: everted gut sac. As to the method:
(§1) Male, weanling Sprague-Dawley rats were placed on Diet 11 (0.47% Ca) diet+AEK for one week followed by Diet 11 (0.02% Ca)+AEK for 3 weeks. The rats were then switched to a diet containing 0.47% Ca for one week followed by two weeks on a diet containing 0.02% Ca. Dose administration began during the last week on 0.02% calcium diet. Four consecutive ip doses were given approximately 24 hours apart. Twenty-four hours after the last dose, blood was collected from the severed neck and the concentration of serum calcium determined as a measure of bone calcium mobilization. The first 10 cm of the intestine was also collected for intestinal calcium transport analysis using the everted gut sac method.

Test [2] can be described thus: Bone calcium mobilization (serum calcium) in vitamin D-deficient rats. The format is in vivo, rat. The following applies: FIG. 4; for bone calcium mobilization: ip. As to the method:
as §1

Test [3] deals with 24-hydroxylase (24Ohase) gene promoter. As to the kind of experiment: In vitro transcription assay, luciferase reporter in ROS 17/2.8 (bone) cells. Particulars: FIG. 3; for EC50: ROS 17/2.8 cells, read-out: EC50, transcriptional activity in bone cells. The test is classed as cell-based. As to the method:
Transcription activity was measured in ROS 17/2.8 (bone) cells that were stably transfected with a 24-hydroxylase (24Ohase) gene promoter upstream of a luciferase reporter gene (Arbour et al., 1998). Cells were given a range of doses. Sixteen hours after dosing the cells were harvested and luciferase activities were measured using a luminometer.
RLU=Relative Luciferase Units.

The next test concerns HL-60 cells. As to the kind of experiment: HL-60 differentiation (nitro blue tetrazolium reduction assay). The format is cell-based, human. Particulars: FIG. 2; for EC50: read-out: EC50, HL-60 cell differentiation. The procedure: The study drugs were dissolved in ethanol and the concentrations determined using UV spectrophotometry. Serial dilutions were prepared so that a range of drug concentrations could be tested without changing the final concentration of ethanol (≦0.2%) present in the cell cultures.
Human promyelocytic leukemia (HL60) cells were grown in RPMI-1640 medium containing 10% fetal bovine serum. The cells were incubated at 37° C. in the presence of 5% CO2.
HL60 cells were plated at 1.2×10^5 cells/ml. Eighteen hours after plating, cells in duplicate were treated with drug. Four days later, the cells were harvested and a nitro blue tetrazolium reduction assay was performed (Collins et al., 1979; J. Exp. Med. 149:969-974). The percentage of differentiated cells was determined by counting a total of 200 cells and recording the number that contained intracellular black-blue formazan deposits. Verification of differentiation to monocytic cells was determined by measuring phagocytic activity (data not shown).

For test [4], the target named is T1, full-length recombinant rat vitamin D receptor (Rattus norvegicus, UniProt P13053).
T1 construct: Full-length recombinant rat receptor was expressed in E. coli BL21 (DE3) Codon Plus RIL cells; His tag (C); made in house; host or cells: E. coli BL21 (DE3) Codon Plus RIL
T1 sequence (P13053 1-423): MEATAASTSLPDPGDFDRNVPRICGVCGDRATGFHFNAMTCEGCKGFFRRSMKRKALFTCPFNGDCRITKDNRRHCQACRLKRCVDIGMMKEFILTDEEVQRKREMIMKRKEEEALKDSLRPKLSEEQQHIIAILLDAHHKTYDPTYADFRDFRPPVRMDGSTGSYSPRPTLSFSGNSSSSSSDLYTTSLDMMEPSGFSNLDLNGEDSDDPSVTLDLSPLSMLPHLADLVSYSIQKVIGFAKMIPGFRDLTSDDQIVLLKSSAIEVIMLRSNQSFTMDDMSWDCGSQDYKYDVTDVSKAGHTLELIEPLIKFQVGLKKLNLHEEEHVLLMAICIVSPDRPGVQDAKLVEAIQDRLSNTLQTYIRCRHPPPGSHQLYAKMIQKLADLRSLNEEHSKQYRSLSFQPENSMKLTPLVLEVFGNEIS
As to the kind of experiment: Vitamin D receptor binding, competition with [3H]-1,25(OH)2D3. Particulars: FIG. 1. As to the method:
Full-length recombinant rat receptor was expressed in E. coli BL21 (DE3) Codon Plus RIL cells and purified to homogeneity using two different column chromatography systems. The first system was a nickel affinity resin that utilizes the C-terminal histidine tag on this protein. The protein that was eluted from this resin was further purified using ion exchange chromatography (S-Sepharose Fast Flow). Aliquots of the purified protein were quick frozen in liquid nitrogen and stored at −80° C. until use. For use in binding assays, the protein was diluted in TEDK50 (50 mM Tris, 1.5 mM EDTA, pH7.4, 5 mM DTT, 150 mM KCl) with 0.1% Chaps detergent. The receptor protein and ligand concentration were optimized such that no more than 20% of the added radiolabeled ligand was bound to the receptor.
Radiolabeled and unlabeled ligands were added to 100 mcl of the diluted protein at a final ethanol concentration of ≦10%, mixed and incubated overnight on ice to reach binding equilibrium. The following day, 100 mcl of hydroxylapatite slurry (50%) was added to each tube and mixed at 10-minute intervals for 30 minutes. The hydroxylapaptite was collected by centrifugation and then washed three times with Tris-EDTA buffer (50 mM Tris, 1.5 mM EDTA, pH 7.4) containing 0.5% Titron X-100. […] Total binding was determined from the tubes containing only radiolabeled ligand.

Read-outs that look alike come from different tables or passages of the source.

Consider `C=C1/C(=C\C=C2/CCC[C@]3(C)[C@@H]([C@H](C)CCCC(C)(C)O)CC[C@@H]23)C[C@@H](O)C[C@@H]1O` [1,25(OH)2D3, 1α,25-dihydroxyvitamin D3, reference compound], for which the intestinal calcium transport entry in test [1] (260 pmol/day) is given as “promotes a significant increase”. In test [2] (all dosages, rats on low calcium diet (0.02%)), the serum calcium levels result is “increased serum calcium levels at all dosages”. The EC50 is 0.2 nM in test [3] and 2 nM in the test with HL-60 cells.

Take `C=C1[C@H](O)CC(=C/C=C2\CCC[C@]3(C)[C@@H]([C@@H](C)/C=C/C[C@H](C)O)CC[C@@H]23)C[C@H]1O` [SS-22, 2-methylene-(20S,25S)-19,27-dinor-(22E)-1α,25-dihydroxyvitamin D3]: the intestinal calcium transport entry is recorded as “promotes intestinal calcium transport only slightly” in test [1] (260 pmol/day) and “significant intestinal calcium transport activity was recorded” in test [1] (7020 pmol/day). In test [1] (in words, overall), the “intestinal calcium transport activity compared to 1,25(OH)2D3” value is listed as “very little activity”. Besides, the bone calcium mobilization entry in test [2] (260 pmol/day for 4 consecutive days, rats on low calcium diet (0.02%)) was “did not result in mobilization of bone calcium”; in test [2] (7020 pmol/day, rats on low calcium diet (0.02%)), “without any substantial effect”. The “bone calcium mobilization activity compared to 1,25(OH)2D3” value in test [2] (in words, overall) is given as “very little bone calcium mobilization activity”. In addition, the EC50 was determined as 0.1 nM in test [3] and 1 nM in the test on HL-60 cells (Homo sapiens, HL-60). Moreover, in test [3] (in words), the “transcriptional activity in bone cells compared to 1α,25-dihydroxyvitamin D3” value is reported as “about the same transcriptional activity”. Besides, the “potency on HL-60 cell differentiation compared to 1,25(OH)2D3” value in the test with HL-60 cells (in words) is recorded as “as potent as 1,25(OH)2D3”. Moreover, the Ki in test [4] (full-length recombinant rat VDR) is 0.3 nM. Further, the “binding to the receptor compared to 1,25-(OH)2D3” value in test [4] (in words) was “bound equally to the receptor”.
